# From patent US20110190365A1, “Insecticidal 4-phenyl-1H-pyrazoles” (Bayer Crop Science AG, priority 2008, published 2011)
# Assay: log P by HPLC on a reversed-phase column (C18), EEC Directive 79/831 Annex V.A8
# Type: physicochemical
# Conditions: HCOOH
# Method: The stated log P values were determined in accordance with EEC Directive 79/831 Annex V.A8 by HPLC (High Performance Liquid Chromatography) using a reversed-phase column (C18).
row,SMILES,log P (HCOOH)
1,Cc1cc(-n2nc(C(F)(F)F)c(-c3cc(Cl)cc(Cl)c3)c2N)ccc1C(=O)NC(C)C(F)(F)F (centres unmarked) [I-A-Q2-011],I-A-Q2-011: log P (HCOOH): 4.54
2,CNC(=O)c1ccc(-n2nc(C(F)(F)F)c(-c3cc(Cl)cc(Cl)c3)c2N)cc1C [I-A-Q2-013],I-A-Q2-013: log P (HCOOH): 3.59
3,Cc1cc(-n2nc(C(F)(F)F)c(-c3cc(Cl)cc(Cl)c3)c2N)ccc1C(=O)NCC(F)(F)F [I-A-Q2-014],I-A-Q2-014: log P (HCOOH): 4.34
4,Cc1cc(-n2nc(C(F)(F)F)c(-c3cc(Cl)cc(Cl)c3)c2N)ccc1C(=O)NC(C)c1ccccn1 (centres unmarked) [I-A-Q2-015],I-A-Q2-015: log P (HCOOH): 3.70
5,Cc1cc(-n2nc(C(F)(F)F)c(-c3cc(Cl)cc(Cl)c3)c2N)ccc1C(=O)NC(C)c1ccccc1 (centres unmarked) [I-A-Q2-016],I-A-Q2-016: log P (HCOOH): 4.79
6,Cc1cc(-n2nc(C(F)(F)F)c(-c3cc(Cl)cc(Cl)c3)c2N)ccc1C(=O)NCC(F)F [I-A-Q2-017],I-A-Q2-017: log P (HCOOH): 4.04
7,Cc1cc(-n2nc(C(F)(F)F)c(-c3cc(Cl)cc(Cl)c3)c2N)ccc1C(=O)NCc1ncccn1 [I-A-Q2-018],I-A-Q2-018: log P (HCOOH): 3.56
8,Cc1cc(-n2nc(C(F)(F)F)c(-c3ccc(Cl)c(Cl)c3)c2N)ccc1C(=O)NC(C)C(F)(F)F (centres unmarked) [I-A-Q2-019],I-A-Q2-019: log P (HCOOH): 4.57
9,CC(NC(=O)c1cnc(-n2nc(C(F)(F)F)c(-c3cc(Cl)cc(Cl)c3)c2N)nc1C(F)(F)F)c1ccccn1 (centres unmarked) [I-A-Q2-021],I-A-Q2-021: log P (HCOOH): 3.48
10,Cc1cc(-n2nc(C(F)(F)F)c(-c3cc(Cl)cc(Cl)c3)c2Br)ccc1C(=O)NCc1ccccn1 [I-A-Q2-023],I-A-Q2-023: log P (HCOOH): 4.91
11,Cc1cc(-n2nc(C(F)(F)F)c(-c3cc(Cl)cc(Cl)c3)c2I)ccc1C(=O)NC(C)C(F)(F)F (centres unmarked) [I-A-Q2-026],I-A-Q2-026: log P (HCOOH): 5.44
12,CSc1c(-c2cc(Cl)cc(Cl)c2)c(C(F)(F)F)nn1-c1ccc(C(=O)NCc2ccccn2)c(C)c1 [I-A-Q2-028],I-A-Q2-028: log P (HCOOH): 4.35
13,Cc1cc(-n2nc(C(F)(F)F)c(-c3cc(Cl)cc(Cl)c3)c2N)ccc1C(=O)NCc1ncccc1C [I-A-Q2-029],I-A-Q2-029: log P (HCOOH): 3.24
14,COC(=O)CNC(=O)c1ccc(-n2nc(C(F)(F)F)c(-c3cc(Cl)cc(Cl)c3)c2N)cc1C [I-A-Q2-030],I-A-Q2-030: log P (HCOOH): 3.68
15,Cc1cc(-n2nc(C(F)(F)F)c(-c3cc(Cl)cc(Cl)c3)c2N)ccc1C(=O)NCC(=O)N1CCOCC1 [I-A-Q2-031],I-A-Q2-031: log P (HCOOH): 3.33
16,COc1ccc(CNC(=O)c2ccc(-n3nc(C(F)(F)F)c(-c4cc(Cl)cc(Cl)c4)c3N)cc2C)nc1 [I-A-Q2-032],I-A-Q2-032: log P (HCOOH): 3.63
17,Cc1cc(-n2nc(C(F)(F)F)c(-c3cc(Cl)cc(Cl)c3)c2N)ccc1C(=O)N(C)CC(F)(F)C(F)F [I-A-Q2-033],I-A-Q2-033: log P (HCOOH): 4.51
18,Cc1cc(-n2nc(C(F)(F)F)c(-c3cc(Cl)cc(Cl)c3)c2N)ccc1C(=O)NCc1ncc[nH]1 [I-A-Q2-034],I-A-Q2-034: log P (HCOOH): 1.94
19,Cc1cc(-n2nc(C(F)(F)F)c(-c3cc(Cl)cc(Cl)c3)c2N)ccc1C(=O)NCC(F)(F)C(F)F [I-A-Q2-035],I-A-Q2-035: log P (HCOOH): 4.23
20,Cc1cc(-n2nc(C(F)(F)F)c(-c3cc(Cl)cc(Cl)c3)c2N)ccc1C(=O)NCCNC(=O)c1ccccn1 [I-A-Q2-036],I-A-Q2-036: log P (HCOOH): 3.68
21,COc1cnc(CNC(=O)c2ccc(-n3nc(C(F)(F)F)c(-c4cc(Cl)cc(Cl)c4)c3N)cc2C)cc1OC [I-A-Q2-037],I-A-Q2-037: log P (HCOOH): 2.42
22,Cc1cnc(CNC(=O)c2ccc(-n3nc(C(F)(F)F)c(-c4cc(Cl)cc(Cl)c4)c3N)cc2C)c(C)c1 [I-A-Q2-038],I-A-Q2-038: log P (HCOOH): 3.11

row,SMILES,log P (HCOOH)
1,Cc1cc(-n2nc(C(F)(F)F)c(-c3cc(Cl)cc(Cl)c3)c2N)ccc1C(=O)NCc1ccc(F)cn1 [I-A-Q2-039],I-A-Q2-039: log P (HCOOH): 3.94
2,Cc1cc(-n2nc(C(F)(F)F)c(-c3cc(Cl)cc(Cl)c3)c2N)ccc1C(=O)NCc1cc(F)cc(F)c1 [I-A-Q2-040],I-A-Q2-040: log P (HCOOH): 4.57
3,Cc1nc(CNC(=O)c2ccc(-n3nc(C(F)(F)F)c(-c4cc(Cl)cc(Cl)c4)c3N)cc2C)cs1 [I-A-Q2-041],I-A-Q2-041: log P (HCOOH): 3.94
4,Cc1cccc(CNC(=O)c2ccc(-n3nc(C(F)(F)F)c(-c4cc(Cl)cc(Cl)c4)c3N)cc2C)n1 [I-A-Q2-042],I-A-Q2-042: log P (HCOOH): 2.93
5,Cc1cc(-n2nc(C(F)(F)F)c(-c3cc(Cl)cc(Cl)c3)c2N)ccc1C(=O)NC(c1cc(Cl)cc(Cl)c1)C(F)(F)F (centres unmarked) [I-A-Q2-043],I-A-Q2-043: log P (HCOOH): 5.65
6,Cc1cc(-n2nc(C(F)(F)F)c(-c3cc(Cl)cc(Cl)c3)c2N)ccc1C(=O)NC1COC1 [I-A-Q2-044],I-A-Q2-044: log P (HCOOH): 3.42
7,Cc1cc(-n2nc(C(F)(F)F)c(-c3cc(Cl)cc(Cl)c3)c2N)ccc1C(=O)NC(c1ccc(Oc2ccccc2)cc1)C(F)(F)F (centres unmarked) [I-A-Q2-045],I-A-Q2-045: log P (HCOOH): 5.85
8,Cc1cc(-n2nc(C(F)(F)F)c(-c3cc(Cl)cc(Cl)c3)c2N)ccc1C(=O)NCc1cc(F)ccc1F [I-A-Q2-046],I-A-Q2-046: log P (HCOOH): 4.51
9,Cc1cc(-n2nc(C(F)(F)F)c(-c3cc(Cl)cc(Cl)c3)c2N)ccc1C(=O)NC(=C(Cl)C#N)C(F)(F)F [I-A-Q2-047],I-A-Q2-047: log P (HCOOH): 4.94
10,Cc1cc(-n2nc(C(F)(F)F)c(-c3cc(Cl)cc(Cl)c3)c2N)ccc1C(=O)NCCOC(C(F)(F)F)C(F)(F)F [I-A-Q2-048],I-A-Q2-048: log P (HCOOH): 4.70
11,Cc1cc(-n2nc(C(F)(F)F)c(-c3cc(Cl)cc(Cl)c3)c2N)ccc1C(=O)NC(Cc1ccccn1)C(F)(F)F (centres unmarked) [I-A-Q2-049],I-A-Q2-049: log P (HCOOH): 4.28
12,Cc1cc(-n2nc(C(F)(F)F)c(-c3cc(Cl)cc(Cl)c3)c2N)ccc1C(=O)NCCc1ccccc1 [I-A-Q2-050],I-A-Q2-050: log P (HCOOH): 4.64
13,Cc1cnc2c(c1)CCCC2NC(=O)c1ccc(-n2nc(C(F)(F)F)c(-c3cc(Cl)cc(Cl)c3)c2N)cc1C (centres unmarked) [I-A-Q2-051],I-A-Q2-051: log P (HCOOH): 3.06
14,COc1ccnc(CNC(=O)c2ccc(-n3nc(C(F)(F)F)c(-c4cc(Cl)cc(Cl)c4)c3N)cc2C)c1 [I-A-Q2-052],I-A-Q2-052: log P (HCOOH): 2.34
15,Cc1ncc(CNC(=O)c2ccc(-n3nc(C(F)(F)F)c(-c4cc(Cl)cc(Cl)c4)c3N)cc2C)c(N)n1 [I-A-Q2-053],I-A-Q2-053: log P (HCOOH): 2.04
16,Cc1cc(-n2nc(C(F)(F)F)c(-c3cc(Cl)cc(Cl)c3)c2N)ccc1C(=O)NC(c1ccccn1)C(F)(F)F (centres unmarked) [I-A-Q2-054],I-A-Q2-054: log P (HCOOH): 2.31
17,Cc1cc(-n2nc(C(F)(F)F)c(-c3cc(Cl)cc(Cl)c3)c2N)ccc1C(=O)N(C)C [I-A-Q2-056],I-A-Q2-056: log P (HCOOH): 3.93
18,COC(=O)CC(NC(=O)c1ccc(-n2nc(C(F)(F)F)c(-c3cc(Cl)cc(Cl)c3)c2N)cc1C)c1ccccn1 (centres unmarked) [I-A-Q2-057],I-A-Q2-057: log P (HCOOH): 2.72
19,Cc1cc(-n2nc(C(F)(F)F)c(-c3cc(Cl)cc(Cl)c3)c2N)ccc1C(=O)NCc1cn(C)cn1 [I-A-Q2-058],I-A-Q2-058: log P (HCOOH): 1.94
20,Cc1nc(CNC(=O)c2ccc(-n3nc(C(F)(F)F)c(-c4cc(Cl)cc(Cl)c4)c3N)cc2C)no1 [I-A-Q2-059],I-A-Q2-059: log P (HCOOH): 3.63
21,Cc1cc(-n2nc(C(F)(F)F)c(-c3cc(Cl)cc(Cl)c3)c2N)ccc1C(=O)NCc1ccc(C(F)(F)F)nc1 [I-A-Q2-060],I-A-Q2-060: log P (HCOOH): 4.34

# Same assay, conditions: HPLC, reversed-phase C18, mobile phase with formic acid
row,SMILES,log P (HCOOH)
1,N#Cc1cc(-n2nc(C(F)(F)F)c(-c3cc(Cl)cc(Cl)c3)c2N)ccc1-n1nc(C(F)F)cc1C(F)F [I-A-Q1-080],I-A-Q1-080: log P (HCOOH): 4.64
2,N#Cc1cc(-n2nc(C(F)(F)F)c(-c3cc(Cl)cc(Cl)c3)c2N)ccc1-n1cnc2ccccc21 [I-A-Q1-081],I-A-Q1-081: log P (HCOOH): 4.28
3,N#Cc1cc(-n2nc(C(F)(F)F)c(-c3cc(Cl)cc(Cl)c3)c2N)ccc1-n1cccn1 [I-A-Q1-082],I-A-Q1-082: log P (HCOOH): 4.34
4,Cc1nc(C)n(-c2ccc(-n3nc(C(F)(F)F)c(-c4cc(Cl)cc(Cl)c4)c3N)cc2C#N)n1 [I-A-Q1-083],I-A-Q1-083: log P (HCOOH): 3.84
5,N#Cc1cc(-n2nc(C(F)(F)F)c(-c3cc(Cl)cc(Cl)c3)c2N)ccc1-n1cc(Cl)cn1 [I-A-Q1-084],I-A-Q1-084: log P (HCOOH): 4.70
6,COc1cnn(-c2ccc(-n3nc(C(F)(F)F)c(-c4cc(Cl)cc(Cl)c4)c3N)cc2C#N)c1 [I-A-Q1-085],I-A-Q1-085: log P (HCOOH): 4.45
7,Cc1nc(C(F)(F)F)nn1-c1ccc(-n2nc(C(F)(F)F)c(-c3cc(Cl)cc(Cl)c3)c2N)cc1C#N [I-A-Q1-086],I-A-Q1-086: log P (HCOOH): 4.57
8,N#Cc1cc(-n2nc(C(F)(F)F)c(-c3cc(Cl)cc(Cl)c3)c2N)ccc1-n1cnc(C(N)=O)n1 [I-A-Q1-088],I-A-Q1-088: log P (HCOOH): 3.06
9,N#Cc1cc(-n2nc(C(F)(F)F)c(-c3cc(Cl)cc(Cl)c3)c2N)ccc1-n1cc(F)cn1 [I-A-Q1-092],I-A-Q1-092: log P (HCOOH): 4.40
10,N#Cc1cc(-n2nc(C(F)(F)F)c(-c3cc(Cl)cc(Cl)c3)c2N)ccc1-n1nc(C(F)(F)F)nc1N [I-A-Q1-093],I-A-Q1-093: log P (HCOOH): 4.00
